Laboratory results as given in patent US20210023065A1, “AMPHIPHILIC THIOL COMPOUNDS AND USES THEREOF” (THE REGENTS OF THE UNIVERSITY OF CALIFORNIA, priority 2018, published 2021).

How the values were obtained:
Type in all cases: cell-based
endogenous HRas = target: T1, endogenous HRas (Homo sapiens, UniProt P01112); experiment: Acyl resin-assisted capture detection of HRas palmitoylation in HeLa cells; conditions: for depalmitoylation of HRas: HeLa cells, 20 min, 1 at 1.25 μmol/10^7 cells, same experiments with TCEP alone or compound 2
T1 construct: endogenous in cells; host or cells: HeLa
Procedure: HeLa cells were grown to confluency in 10 cm plates. Stock solutions of compounds were prepared in DMSO as before and diluted to the final indicated concentration in 5.5 mL of OptiMEM media before adding to cells. Cells were incubated at 37° C. for 20 min and then media removed and 3 mL of HBSS added to each plate. Cells were detached using a cell scraper, pelleted by centrifugation at 1,000 rcf for 5 min and the pellet processed using a CAPTUREome S-Palmitoylated Protein Kit (Badrilla, UK) according to the manufacturer's protocol. Samples were resolved by electrophoresis using 4-20% SDS-polyacrylamide gels (Bio-Rad) under denaturing and reducing conditions. Proteins were then electrotransferred to a PVDF membrane (Bio-Rad). The membrane was blocked with 3% BSA and then subjected to immunoblot analysis using Anti-GTPase HRAS antibody (ab97488) (Abcam), Calnexin Antibody (2433S) (Cell Signaling Technology), Gα(i) Antibody (5290S) (Cell Signaling Technology), SNAP25 Antibody (5308S) (Cell Signaling Technology), Flotillin-2 Antibody (3436S) (Cell Signaling Technology), CD44 Antibody (3570S) (Cell Signaling Technology), Lyric/Metadherin Antibody (14065S) (Cell Signaling Technology), Flotillin-1 Antibody (3253S) (Cell Signaling Technology) and secondary goat anti-rabbit IgG-HRP (sc-2030) (Santa Cruz Biotechnology) or goat anti-mouse IgG HRP (ThermoFisher). Chemiluminescent detection was performed by using SuperSignal West Pico PLUS chemiluminescent substrate (ThermoFisher) according to the manufacturer's instructions.
(§1) Assays were performed in 3 biological replicates. Each replicate involved the analysis of 4 to 5 conditions side-by-side. Western blots were analyzed using ImageJ^1. The intensity of the protein band in each cleaved bound fraction (palmitoylated protein fraction) was normalized to the intensity of the corresponding input fraction (total protein fraction). The values within individual S 4 replicates were normalized to the control or vehicle condition and reported as means±SD. An unpaired t test was performed to determine the significance between means.

EGFP-HRas = target: T2, EGFP-HRas (Homo sapiens, UniProt P01112); experiment: Live-cell imaging of EGFP-HRas localization in HeLa cells; conditions: HeLa cells, 1.25 μmol/10^7 cells, 20 min
T2 construct: host or cells: HeLa
Procedure: Imaging was performed on an Axio Observer Z1 inverted microscope (Carl Zeiss Microscopy Gmb, Germany) with Yokogawa CSU-X1 spinning disk confocal unit using a 63×, 1.4 NA oil immersion or 20×, 0.8 NA objective to an ORCA-Flash4.0 V2 Digital CMOS camera (Hamamatsu, Japan). For live cell imaging, an incubation chamber with temperature and CO2 controllers (World Precision Instruments) was utilized. Fluorophores were excited with s diode laser (488 nm; 30 mW). Images were acquired using Zen Blue software (Carl Zeiss) and processed using Image J.^1
HeLa cells were plated at 40,000 cells/well in an 8-well Lab-Tek chamber slide (ThermoFisher) and allowed to adhere overnight. Cells were transfected with mEGFP-HRas or mEGFP-KRas4b using Lipofectamine 2000 (ThermoFisher) according to the manufacturer's protocol. 50 mM stocks of compounds 1 and 2 were prepared by dissolving the solid compound in DMSO containing 100 mM tris(2-S 3 carboxyethyl)phosphine hydrochloride (TCEP) as a preservative. From these stocks, a solution of 200 μM [1 or 2] (with 400 μM TCEP), or 400 μM TCEP was prepared in OptiMEM media. Before imaging, cells were exchanged into OptiMEM media. The diluted solutions were added to the indicated final concentration within individual wells of the chamber slide and cells imaged while maintaining 37° C., 5% CO2 in the incubation chamber. Images were acquired in 6 different locations across a minimum of 2 independent experiments. […] An unpaired t test was performed to determine the significance of the means before and after treatment.

GAP43 = target: T3, GAP43 (Homo sapiens, UniProt P17677); experiment: Acyl resin-assisted capture detection of GAP43 palmitoylation in INCL lymphoblasts; conditions: 0.05 μmol/10^7 cells, 24 h
T3 construct: Western blot detection of endogenous GAP43 in acyl resin-assisted capture fractions; host or cells: INCL human lymphoblasts
T3 sequence (P17677 1-238): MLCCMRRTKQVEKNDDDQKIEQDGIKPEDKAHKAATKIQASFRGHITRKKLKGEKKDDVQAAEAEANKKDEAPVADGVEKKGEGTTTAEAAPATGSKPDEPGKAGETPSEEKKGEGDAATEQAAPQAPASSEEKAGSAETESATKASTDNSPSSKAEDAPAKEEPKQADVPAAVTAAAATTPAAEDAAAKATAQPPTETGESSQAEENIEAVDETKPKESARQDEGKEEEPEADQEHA
Procedure: INCL Lymphoblasts were adjusted to 1,000,000 cells/mL in 20 mL of OptiMem Media. Stock solutions of compounds were prepared in DMSO as before and diluted to the indicated final concentration in the cell suspension. […] Cells were pelleted by centrifugation at 1,000 rcf for 5 min and the pellet processed using a CAPTUREome S-Palmitoylated Protein Kit (Badrilla, UK) according to the manufacturer's protocol. Samples were resolved by electrophoresis using 4-20% SDS-polyacrylamide gels (Bio-Rad) under denaturing and reducing conditions. Proteins were then electrotransferred to a PVDF membrane (Bio-Rad). The membrane was blocked with 3% BSA and then subjected to immunoblot analysis using GAP-43 (B-5) Antibody (sc-17790) (Santa Cruz Biotechnology) and secondary antibody goat anti-mouse IgG HRP (ThermoFisher). Chemiluminescent detection was performed by using SuperSignal West Pico PLUS chemiluminescent substrate (ThermoFisher) according to the manufacturer's instructions.
as §1

T1 sequence (P01112 whole entry): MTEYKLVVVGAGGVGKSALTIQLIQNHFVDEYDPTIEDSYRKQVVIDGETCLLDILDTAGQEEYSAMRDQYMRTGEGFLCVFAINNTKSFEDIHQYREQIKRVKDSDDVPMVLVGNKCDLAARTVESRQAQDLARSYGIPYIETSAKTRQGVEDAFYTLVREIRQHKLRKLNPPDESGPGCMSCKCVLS
T2 sequence (P01112 1-186 limits assumed): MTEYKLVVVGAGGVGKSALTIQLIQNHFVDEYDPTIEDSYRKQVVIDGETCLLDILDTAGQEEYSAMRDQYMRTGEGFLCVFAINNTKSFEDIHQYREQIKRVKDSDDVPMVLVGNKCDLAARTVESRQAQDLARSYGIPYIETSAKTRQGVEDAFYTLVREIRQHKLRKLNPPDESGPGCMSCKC

Compound | depalmitoylation of HRas by PB alone (endogenous HRas; HeLa cells treated with PB, without 1) | EGFP-HRas localization at the plasma membrane (fluorescence) (EGFP-HRas) | depalmitoylation of HRas (endogenous HRas) | level of GAP43 palmitoylation (GAP43)
CCCCCCCCCC[C@@H]1C(=O)O[C@H]1CCc1ccc(OC)c(OC)c1 [PB, palmostatin B, reference compound] | no significant depalmitoylation | – | – | –
Cl.O=C(O)CCP(CCC(=O)O)CCC(=O)O [TCEP, tris(2-carboxyethyl)phosphine hydrochloride, reference compound] | – | no change in fluorescence localization | no significant depalmitoylation | did not result in a significant change
CCCCCCCCNC(=O)[C@@H](N)CO [compound 2, H2N-L-Ser-Oct, reference compound] | – | no change in fluorescence localization | no significant depalmitoylation | did not result in a significant change
